Assay results from PMC7823780 (Viruses, 2021).
“Also recorded” adds a separate entry of the source. Where two headings read alike, the source gives them in different places.

Columns and labels:
[1] = system: Echo9; assay: Plaque reduction assay Echo9; assay type: cell-based, human enterovirus B; conditions: Enterovirus B; 50% reduction of plaque number, LLC-MK2 cells
[2] = system: CV-B3; assay: Plaque reduction assay CV-B3; assay type: cell-based, human enterovirus B; conditions: Enterovirus B
[3] = system: CV-B5; assay: Plaque reduction assay CV-B5; assay type: cell-based, human enterovirus B; conditions: Enterovirus B
[4] = Cytotoxicity assay, mock-infected LLC-MK2; assay type: cell-based; conditions: Macaca mulatta, mock-infected LLC-MK2 cells, mock-infected LLC-MK2, MTT
[5] = Cytotoxicity assay, MTT, mock-infected MDBK; assay type: cell-based; conditions: bovine, mock-infected MDBK cells
[6] = Cytotoxicity assay, MTT, mock-infected Vero-76; assay type: cell-based; conditions: Cercopithecus aethiops, mock-infected Vero-76 cells, mock-infected Vero-76, MTT; for CC50 at 3 days: value marked *, after 3 * days; for CC50: value printed without *
[7] = Cytotoxicity assay, MTT, mock-infected BHK-21; assay type: cell-based; conditions: Syrian hamster, mock-infected BHK-21 cells; mock-infected BHK-21, MTT
[8] = system: EV-D68; assay: Inhibition of EV-D68-induced cytopathogenicity in HeLa cells (MTT); assay type: cell-based, human enterovirus D 68 strain Fermon; conditions: for EC50: Enterovirus D, EVD68, m.o.i. 0.01
[9] = Cytotoxicity assay, MTT, mock-infected HeLa; assay type: cell-based; conditions: human, mock-infected HeLa cells
[10] = system: CV-B4; assay: Plaque reduction assay CV-B4; assay type: cell-based, human enterovirus B; conditions: for EC50: Enterovirus B
[11] = system: PV-1; assay: microbe, parasite or virus in culture; assay type: cell-based; conditions: Enterovirus C, read-out: EC50 PV-1
[12] = system: EV-A71; assay: Protective effect on EV-A71-infected Vero-76 monolayers (cell morphology); assay type: cell-based
[13] = system: EV-A71; assay: Cell pretreatment assay; assay type: cell-based, human enterovirus A71 strain BrCr; conditions: Vero-76 pre-incubated 2 h with 20 µM, then infected
[14] = system: EV-A71; assay: Yield reduction assay; assay type: cell-based, human enterovirus A71 strain BrCr; conditions: Vero-76, m.o.i. 0.1, 100, 20, 4 and 0.8 µM, 96 h
[15] = system: Caco-2 cells; assay: Cell monolayer permeabilization (TEER); assay type: cell-based, human; conditions: Caco-2 monolayers, 20 µM, all time points up to 48 h
[16] = system: EV-A71; assay: Apoptosis assay, Annexin V/PI flow cytometry, EV-A71-infected Vero-76; assay type: cell-based, human enterovirus A71 strain BrCr; conditions: 96 h, m.o.i. 0.1
[17] = system: EV-A71; assay: Virucidal activity assay; assay type: cell-based, human enterovirus A71 strain BrCr; conditions: 20 µM, 4 or 37 °C, 1 h
[18] = system: EV-A71; assay: Adsorption assay; assay type: cell-based, human enterovirus A71 strain BrCr; conditions: Vero-76, m.o.i. 1, 20 µM, 2 h at 4 °C
[19] = system: EV-A71; assay: Penetration assay; assay type: cell-based, human enterovirus A71 strain BrCr; conditions: Enterovirus A, EVA71, 1 h; Vero-76, 100–0.8 µM, 60 min at 37 °C; read-out: EC50 of inhibition of viral penetration
[20] = system: EV-A71; assay: Inhibition of EV-A71-induced cytopathogenicity in Vero-76 cells (MTT); assay type: cell-based, human enterovirus A71 strain BrCr
[21] = system: EV-A71; assay: Time-of-addition assay; assay type: cell-based, human enterovirus A71 strain BrCr; conditions: Vero-76, m.o.i. 1, 20 µM
[22] = CVB3, 50% reduction of plaque number, read-out: EC50 CV-B3
[23] = CVB5, 50% reduction of plaque number, read-out: EC50 CV-B5
[24] = CVB4, 50% reduction of plaque number, read-out: EC50 CV-B4

| Structure (SMILES) | EC50 [1] [µM] | EC50 [2, 22] [µM] | EC50 [3, 23] [µM] | CC50 at 5 days [4] [µM] | CC50 [5] [µM] | CC50 [6] [µM] | CC50 [7] [µM] | EC50 [8] [µM] | CC50 at 4 days [9] [µM] | EC50 [10, 24] [µM] | EC50 [11] [µM] | further results |
| --- | --- | --- | --- | --- | --- | --- | --- | --- | --- | --- | --- | --- |
| CC(C)c1ccc(-c2nc3ccccc3[nH]2)cc1 [Compound 1a, 2-(4-Isopropylphenyl)-1H-Benzo[d]imidazole] | > 6 | > 60 | > 60 | 6 | 65 | 60 | 36 | > 9 | 9 | > 60 | 11.5 | CC50 at 3 days [6]: 24 µM |
| CC(C)(C)c1ccc(-c2nc3ccccc3[nH]2)cc1 [Compound 1b, 2-(4-(Tert-Butyl)phenyl)-1H-Benzo[d]imidazole] | > 6.5 | > 46 | 7 | 6.5 | 9 | 46 | 20 | > 9 | 9 | > 46 | 9 | CC50 at 3 days [6]: 40 µM |
| CC(C)c1ccc(-c2nc3cc(Cl)ccc3[nH]2)cc1 [Compound 2a, 5-Chloro-2-(4-Isopropylphenyl)-1H-Benzo[d]imidazole] | 8 | 17 | 10 | > 100 | 80 | > 100 | > 100 | > 100 | 100 | ≥ 100 | 9 | EC50 CV-B4 ([10]; 50% reduction of plaque number): No activity |
| CC(C)(C)c1ccc(-c2nc3cc(Cl)ccc3[nH]2)cc1 [Compound 2b, 2-(4-(Tert-Butyl)phenyl)-5-Chloro-1H-Benzo[d]imidazole] | 4 | 33 | 10 | 12 | > 100 | > 100 | > 100 | > 100 | 100 | 25.5 | 6 | protection of Vero-76 monolayer from EV-A71 infection (morphology) ([12]; 20 µM and 80 µM, m.o.i. 0.1): protect cells from EV-A71 infection; cytotoxic effect on Vero-76 monolayer (morphology) ([12]; up to a concentration of 80 µM): no evident cytotoxic effects; inhibition after cell pre-incubation [13]: no inhibition; reduction in EV-A71 titer (yield reduction) [14]: dose-dependent reduction; TEER values versus control [15]: not significantly different from control values; also recorded: did not induce any significant change in permeability; viability at 20 µM ([16]; Enterovirus A, EVA71, Vero-76, 20 µM, read-out: viability of EV-A71-infected cells): 90%; viability at 80 µM ([16]; Enterovirus A, EVA71, Vero-76, 80 µM, read-out: viability of EV-A71-infected cells): 80%; necrotic cells among EV-A71-infected cells ([16]; Vero-76, 20 µM): 10%; necrotic cells among EV-A71-infected cells ([16]; Vero-76, 80 µM): 20%; virucidal effect on EV-A71 infectivity [17]: failed to affect the EV-A71 infectivity; virus titer in adsorption assay [18]: detectable reduction in the virus titer; EC50 [19]: 6.2 µM; EC50 ([20]; 50% protection of Vero-76 cells from EV-A71-induced cytopathogenicity, MTT, m.o.i. 0.01): 3.5 µM; selectivity index ([20]; EV-A71, Vero-76): > 30; effect by time of addition [21]: greatest effect when added along with the virus |
| CC(C)c1ccc(-c2nc3cc(Cl)c(Cl)cc3[nH]2)cc1 [Compound 3a, 5,6-Dichloro-2-(4-Isopropylphenyl)-1H-Benzo[d]imidazole] | > 7 |  |  | 7 | 2.5 | 25.5 | 8 | > 8 | 8 |  | > 25.5 | EC50 ([2]; CVB3, read-out: EC50 CV-B3): > 25.5 µM; EC50 ([3]; CVB5, read-out: EC50 CV-B5): > 25.5 µM; CC50 at 3 days [6]: 8 µM; EC50 ([10]; CVB4, read-out: EC50 CV-B4): > 25.5 µM |
| CC(C)(C)c1ccc(-c2nc3cc(Cl)c(Cl)cc3[nH]2)cc1 [Compound 3b, 2-(4-(Tert-Butyl)phenyl)-5,6-Dichloro-1H-Benzo[d]imidazole] | > 12 | > 9 | 2 | 12 | 7 | 9 | 9 | > 6.4 | 6.4 | > 9 |  |  |
| CC(C)c1ccc(-c2nc3cc(F)ccc3[nH]2)cc1 [Compound 4a, 5-Fluoro-2-(4-Isopropylphenyl)-1H-Benzo[d]imidazole] | > 29.5 | > 100 | > 100 | 29.5 | > 100 | > 100 | > 100 | > 100 | > 100 | > 100 | ≥ 100 |  |
| CC(C)(C)c1ccc(-c2nc3cc(F)ccc3[nH]2)cc1 [Compound 4b, 2-(4-(Tert-Butyl)phenyl)-5-Fluoro-1H-Benzo[d]imidazole] | > 100 | > 100 | > 100 | > 100 | > 100 | > 100 | > 100 | > 100 | > 100 | > 100 | 20 |  |
| CC(C)c1ccc(-c2nc3cc(F)c(F)cc3[nH]2)cc1 [Compound 5a, 5,6-Difluoro-2-(4-Isopropylphenyl)-1H-Benzo[d]imidazole] | > 100 | > 100 | > 100 | 100 | > 100 | > 100 | > 100 | > 100 | > 100 | > 100 | 12 | EC50 EV-D68 ([8]; m.o.i. 0.01): not active |
| CC(C)(C)c1ccc(-c2nc3cc(F)c(F)cc3[nH]2)cc1 [Compound 5b, 2-(4-(Tert-Butyl)phenyl)-5,6-Difluoro-1H-Benzo[d]imidazole] | > 100 | > 100 | > 100 | > 100 | > 100 | > 100 | > 100 | 4 | > 100 | > 100 | 10 |  |
| C[C@@]1(O)[C@H](O)[C@@H](CO)O[C@H]1n1ccc(N)nc1=O [NM 107, 2′-C-methylcytidine, reference compound] |  |  |  |  |  | > 100 |  |  |  | 29 | 6 |  |
| Cc1cc(CCCOc2c(C)cc(-c3noc(C(F)(F)F)n3)cc2C)on1 [Plc, Pleconaril, reference compound] | 0.1 | 2 ± 0.005 | 2 ± 0.5 | > 100 |  | > 100 |  | 0.3 |  |  |  |  |
| CCOC(=O)/C=C/[C@H](C[C@@H]1CCNC1=O)NC(=O)[C@@H](CC(=O)[C@@H](NC(=O)c1cc(C)on1)C(C)C)Cc1ccc(F)cc1 [Rup, Rupintrivir, reference compound] |  |  |  |  |  | > 100 |  |  |  |  | 0.07 |  |
